Assay results from patent US20020022659A1, “Crystalline and salt forms of an HIV protease inhibitor” (priority 2000, published 2002).
In brackets after ≈: the same amount, converted by molar mass.

Experiments:
[1] = Polymorphic relationship of the mono-methane sulfonate forms (relative stability); assay type: physicochemical; conditions: anhydrous monotropic polymorphs of the mono-methane sulfonate; between 20° C. and 206° C.
Source text: Form I and Form II are anhydrous monotropic polymorphs. […] Form II, the higher melting form, can be formed directly from crystallization as described above, while Form I can be synthesized using ethyl acetate followed by drying. However, the crystal packing of the ethyl acetate solvate and Form I are distinct from each other confirming that Form I is an actual anhydrous form.

HIV-1 (RF) = assay: HIV RNA assay, microplate based compound evaluation in HIV-1 infected MT-2 cells; assay type: cell-based; conditions: Human immunodeficiency virus 1, MT2, 72 h; HIV-1 (RF) infected MT-2 cells, 3 days of culture; virus dilutions selected to give this value (inoculum standardisation); read-out: IC90 value (concentration of compound required to reduce the HIV RNA level by 90%)
Description: DNA Plasmids and in vitro RNA Transcripts:
Plasmid pDAB 72 containing both gag and pol sequences of BH10 (bp 113-1816) cloned into PTZ 19R was prepared according to Erickson-Viitanen et al. AIDS Research and Human Retroviruses 1989, 5, 577. The plasmid was linearized with Bam HI prior to the generation of in vitro RNA transcripts using the Riboprobe Gemini system II kit (Promega) with T7 RNA polymerase. Synthesized RNA was purified by treatment with RNase free DNAse (Promega), phenol-chloroform extraction, and ethanol precipitation. RNA transcripts were dissolved in water, and stored at −70° C. The concentration of RNA was determined from the A260.
Biotinylated capture probes were purified by HPLC after synthesis on an Applied Biosystems (Foster City, Calif.) DNA synthesizer by addition of biotin to the 5′ terminal end of the oligonucleotide, using the biotin-phosphoramidite reagent of Cocuzza, Tet. Lett. 1989, 30, 6287. […]
MT-2 and MT-4 cells were maintained in RPMI 1640 supplemented with 5% fetal calf serum (FCS) for MT-2 cells or 10% FCS for MT-4 cells, 2 mM L-glutamine and 50 μg/mL gentamycin, all from Gibco. […] Infectious titers of HIV-1(RF) stocks were 1-3×10^7 PFU (plaque forming units)/mL as measured by plaque assay on MT-2 cells (see below). […]

HIV protease = HIV protease (Human immunodeficiency virus type 1 group M subtype B, UniProt P04585); assay: HIV protease inhibition (stated as tested, no method given); assay type: biochemical

CC(C)CN(C[C@@H](O)[C@H](Cc1ccccc1)NC(=O)[C@@H](NC(=O)CNCc1cccc(F)c1)C(C)(C)C)S(=O)(=O)c1cccc(N)c1 [Form II]
Relative stability of polymorphs [1]: more stable than Form I

Nc1ccn([C@H]2CC[C@@H](CO)O2)c(=O)n1 [ddC, dideoxycytidine]
IC90 (HIV-1 (RF)): 0.2 µg/mL (≈ 0.947 µM)

CC(C)CN(C[C@@H](O)[C@H](Cc1ccccc1)NC(=O)[C@@H](NC(=O)CNCc1cccc(F)c1)C(C)(C)C)S(=O)(=O)c1cccc(N)c1 [Compound A]
HIV protease inhibitor activity (HIV protease): potent HIV protease inhibitor
